# Source: US4021434A, “Sodium β-[2,6-dimethyl-3,5-bis(ethoxycarbonyl)-4-(3-nitrophenyl)-1,4-dihyd ropyridine-1-yl]ethyl sulfate” (Yamanouchi Pharmaceutical Co., Ltd., priority 1972, dated 1977)
# Key:
# mice = experiment: in vivo; format: in vivo
# cerebral circulation = experiment: Effect on cerebral circulation in dogs anesthetized by chloralose-urethane (Experiment 1, Table I); format: in vivo
# [1] = test system: hypertensive action of norepinephrine; experiment: Antagonism against hypertensive action of norepinephrine, intra-duodenal administration (Experiment 4, Table 5); format: in vivo, dogs
# Protocol: Drugs were administered intra-duodenally.
# [2] = test system: partial oxygen pressure in coronary venous blood; experiment: Effects on MBP and partial oxygen pressure (PO2) in coronary venous blood, intra-duodenal administration (Experiment 4, Table 4)
# Protocol: (§1) Antagonism against hypertensive action of norepinephrine and effects on MBP and partial oxygen pressure (referred to hereinafter as PO2) in coronary venous blood, in case of intra-duodenal administration:
# (§2) By using dogs anesthetized by pentobarbital, blood pressure at the femoral artery was measured. […] Antagonism against hypertensive active in case of norepinephrine administration (3g/kg i.v.) was investigated also. Drugs were administered intra-duodenally.
# [3] = as above
# Protocol: as §1, §2
# in vivo = format: in vivo; details: mouse, in vivo, mice
# [4] = test system: vertebral blood flow and coronary blood flow; experiment: Effects on mean blood pressure, vertebral blood flow and coronary blood flow, intravenous, dogs anesthetized with pentobarbital (Experiment 3, Table 3); format: in vivo
# Protocol: Effects on mean blood pressure (hereinafter referred to as MBP), vertebral blood flow (hereinafter referred to as VBF) and coronary blood flow (hereinafter referred to as Cor.BF), when administered intravenously:
# By using dogs anesthetized with pentobarbital, VBF and Cor. BF were measured with an electromagnetic flowmeter. Blood pressure at the femoral artery was measured.
# physchem = details: water
# [5] = 1 mg/kg i.d., 1/2 hour post-administration
# [6] = 1 mg/kg i.d., 1 hour post-administration
# [7] = 1 mg/kg i.d., 2 hour post-administration
# [8] = 1 mg/kg i.d., 3 hour post-administration
# [9] = 1 mg/kg i.d., 5 hour post-administration
# [10] = 1 mg/kg i.d., 8 hour post-administration
# [11] = 1 mg/kg i.d., Pre-administration (baseline)
# [12] = 10 mg/kg i.d., 1/2 hour post-administration
# [13] = 10 mg/kg i.d., 1 hour post-administration
# [14] = 10 mg/kg i.d., 2 hour post-administration
# [15] = 10 mg/kg i.d., 3 hour post-administration
# [16] = 10 mg/kg i.d., 5 hour post-administration
# [17] = 10 mg/kg i.d., 8 hour post-administration
# [18] = 10 mg/kg i.d., Pre-administration (baseline)
compound,measurement,setting,value
"CCOCN1C(C)=C(C(=O)OCC)C(c2cccc([N+](=O)[O-])c2)C(C(=O)OCC)=C1C [A, diethyl 1-ethoxymethyl-2,6-dimethyl-4-(3-nitrophenyl)-1,4-dihydropyridine-3,5-dicarboxylate]",MLD (Minimum lethal dose),mice; i.p.,> 3000 mg/kg
same,MLD (Minimum lethal dose),mice; p.o.,> 5000 mg/kg
same,Carotid blood flow Duration,cerebral circulation; 0.1 mg/Kg i.v.,120 min
same,Carotid blood flow Increase,cerebral circulation; 0.1 mg/Kg i.v.,80%
same,Mean Blood Pressure Decrease,cerebral circulation; 0.1 mg/Kg i.v.,9%
same,Regional Cerebral blood flow Duration,cerebral circulation; 0.1 mg/Kg i.v.,120 min
same,Regional Cerebral blood flow Increase,cerebral circulation; 0.1 mg/Kg i.v.,8.6 μV
same,Vertebral Blood Flow Increase,cerebral circulation; 0.1 mg/Kg i.v.,120%
same,Vertebral blood flow Duration,cerebral circulation; 0.1 mg/Kg i.v.,100 min
CCOC(=O)C1=C(C)NC(C)=C(C(=O)OCC)C1c1cccc([N+](=O)[O-])c1 [B],Percent inhibition against increase of blood pressure caused by norepinephrin,[1]; [5],79%
same,Percent inhibition against increase of blood pressure caused by norepinephrin,[1]; [6],78%
same,Percent inhibition against increase of blood pressure caused by norepinephrin,[1]; [7],79%
same,Percent inhibition against increase of blood pressure caused by norepinephrin,[1]; [8],77%
same,Percent inhibition against increase of blood pressure caused by norepinephrin,[1]; [9],63%
same,Percent inhibition against increase of blood pressure caused by norepinephrin,[1]; [10],48%
same,PO2 in coronary venous blood,[2]; [5],34.6
same,PO2 in coronary venous blood,[2]; [6],37.7
same,PO2 in coronary venous blood,[2]; [7],39.3
same,PO2 in coronary venous blood,[2]; [8],38.9
same,PO2 in coronary venous blood,[2]; [9],32.7
same,PO2 in coronary venous blood,[2]; [10],25.0
same,PO2 in coronary venous blood,[2]; [11],17.4
same,MBP,[3]; [11],101
same,MBP,"[3]; 1 mg/kg i.d., change, 1/2 hour post-administration",-39
same,MBP,"[3]; 1 mg/kg i.d., change, 1 hour post-administration",-43
same,MBP,"[3]; 1 mg/kg i.d., change, 2 hour post-administration",-42
same,MBP,"[3]; 1 mg/kg i.d., change, 3 hour post-administration",-32
same,MBP,"[3]; 1 mg/kg i.d., change, 5 hour post-administration",-27
same,MBP,"[3]; 1 mg/kg i.d., change, 8 hour post-administration",-12
same,LD50,in vivo; ip,525 mg/kg
same,LD50,in vivo; po,5000 mg/kg
same,Coronary Blood Flow Duration,[4]; 0.001 mg/kg i.v.,5 min
same,Coronary Blood Flow Increase,[4]; 0.001 mg/kg i.v.,58 Δ%
same,Mean Blood Pressure Decrease,[4]; 0.001 mg/kg i.v.,-15 ΔmmHg
same,Vertebral Blood Flow Increase,[4]; 0.001 mg/kg i.v.,20 Δ%
same,Coronary Blood Flow Duration,[4]; 0.01 mg/kg i.v.,30 min
same,Coronary Blood Flow Increase,[4]; 0.01 mg/kg i.v.,141 Δ%
same,Mean Blood Pressure Decrease,[4]; 0.01 mg/kg i.v.,-35 ΔmmHg
same,Vertebral Blood Flow Increase,[4]; 0.01 mg/kg i.v.,144 Δ%
same,Carotid blood flow Duration,cerebral circulation; 0.01 mg/Kg i.v.,30 min
same,Carotid blood flow Increase,cerebral circulation; 0.01 mg/Kg i.v.,83%
same,Mean Blood Pressure Decrease,cerebral circulation; 0.01 mg/Kg i.v.,29%
same,Regional Cerebral blood flow Duration,cerebral circulation; 0.01 mg/Kg i.v.,30 min
same,Regional Cerebral blood flow Increase,cerebral circulation; 0.01 mg/Kg i.v.,9.2 μV
same,Vertebral Blood Flow Increase,cerebral circulation; 0.01 mg/Kg i.v.,130%
same,Vertebral blood flow Duration,cerebral circulation; 0.01 mg/Kg i.v.,30 min
same,water-solubility (in words),Water-solubility,almost unsoluble in water
COC(=O)C1=C(C)NC(C)=C(C(=O)OC)C1c1ccccc1[N+](=O)[O-] [C],Carotid blood flow Duration,cerebral circulation; 0.01 mg/Kg i.v.,30 min
same,Carotid blood flow Increase,cerebral circulation; 0.01 mg/Kg i.v.,90%
same,Mean Blood Pressure Decrease,cerebral circulation; 0.01 mg/Kg i.v.,28%
same,Regional Cerebral blood flow Duration,cerebral circulation; 0.01 mg/Kg i.v.,30 min
same,Regional Cerebral blood flow Increase,cerebral circulation; 0.01 mg/Kg i.v.,8.2 μV
same,Vertebral Blood Flow Increase,cerebral circulation; 0.01 mg/Kg i.v.,120%
same,Vertebral blood flow Duration,cerebral circulation; 0.01 mg/Kg i.v.,30 min
"CCOC(=O)C1=C(C)N(CCOS(=O)(=O)[O-])C(C)=C(C(=O)OCC)C1c1cccc([N+](=O)[O-])c1.[Na+] [D, sodium β-[2,6-dimethyl-3,5-bis(ethoxycarbonyl)-4-(3-nitrophenyl)-1,4-dihydropyridine-1-yl]-ethyl sulfate]",Percent inhibition against increase of blood pressure caused by norepinephrin,[1]; [12],69%
same,Percent inhibition against increase of blood pressure caused by norepinephrin,[1]; [13],84%
same,Percent inhibition against increase of blood pressure caused by norepinephrin,[1]; [14],89%
same,Percent inhibition against increase of blood pressure caused by norepinephrin,[1]; [15],89%
same,Percent inhibition against increase of blood pressure caused by norepinephrin,[1]; [16],85%
same,Percent inhibition against increase of blood pressure caused by norepinephrin,[1]; [17],79%
same,PO2 in coronary venous blood,[2]; [12],34.7
same,PO2 in coronary venous blood,[2]; [13],37.2
same,PO2 in coronary venous blood,[2]; [14],39.7
same,PO2 in coronary venous blood,[2]; [15],43.3
same,PO2 in coronary venous blood,[2]; [16],43.2
same,PO2 in coronary venous blood,[2]; [17],40.0
same,PO2 in coronary venous blood,[2]; [18],17.8
same,duration time,[2]; compared with compounds B or C,much longer than those of compounds B or C
same,absorption in case of peroral administration,"[2]; peroral (intra-duodenal), compared with compounds B or C",more easily absorbed than compounds B or C
same,MBP,[3]; [18],110
same,MBP,"[3]; 10 mg/kg i.d., change, 1/2 hour post-administration",-11
same,MBP,"[3]; 10 mg/kg i.d., change, 1 hour post-administration",-21
same,MBP,"[3]; 10 mg/kg i.d., change, 2 hour post-administration",-32
same,MBP,"[3]; 10 mg/kg i.d., change, 3 hour post-administration",-43
same,MBP,"[3]; 10 mg/kg i.d., change, 5 hour post-administration",-4.3
same,MBP,"[3]; 10 mg/kg i.d., change, 8 hour post-administration",-40
same,Coronary Blood Flow Duration,[4]; 0.1 mg/kg i.v.,20 min
same,Coronary Blood Flow Increase,[4]; 0.1 mg/kg i.v.,67 Δ%
same,Mean Blood Pressure Decrease,[4]; 0.1 mg/kg i.v.,-5 ΔmmHg
same,Vertebral Blood Flow Increase,[4]; 0.1 mg/kg i.v.,21 Δ%
same,Coronary Blood Flow Duration,[4]; 0.3 mg/kg i.v.,60 min
same,Coronary Blood Flow Increase,[4]; 0.3 mg/kg i.v.,72 Δ%
same,Mean Blood Pressure Decrease,[4]; 0.3 mg/kg i.v.,-12 ΔmmHg
same,Vertebral Blood Flow Increase,[4]; 0.3 mg/kg i.v.,75 Δ%
same,Coronary Blood Flow Duration,[4]; 1 mg/kg i.v.,≥ 120 min
same,Coronary Blood Flow Increase,[4]; 1 mg/kg i.v.,137 Δ%
same,Mean Blood Pressure Decrease,[4]; 1 mg/kg i.v.,-35 ΔmmHg
same,Vertebral Blood Flow Increase,[4]; 1 mg/kg i.v.,169 Δ%
same,effects on cerebral and coronary blood flow and blood pressure (in words),[4]; administered intravenously,excellent effects as increasing the cerebral blood flow and coronary blood flow and at the same time showed hypotensive activity
same,duration of activities (in words),"[4]; administered intravenously, compared with known compounds",prolonged for a long period of time when compared with known compounds
same,solubility,physchem,~400 mg/mL
same,water-solubility (in words),Water-solubility,excellent water-solubility
"CCOC(=O)C1=C(C)NC(C)=C(C(=O)OCC)C1c1ccccc1C(F)(F)F [E, 3,5-Dicarboethoxy-1,4-dihydro-2,6-dimethyl-4-(2-trifluoromethylphenyl)pyridine]",Coronary Blood Flow Duration,[4]; 0.001 mg/kg i.v.,10 min
same,Mean Blood Pressure Decrease,[4]; 0.001 mg/kg i.v.,-16 ΔmmHg
same,Vertebral Blood Flow Increase,[4]; 0.001 mg/kg i.v.,74 Δ%
same,Coronary Blood Flow Duration,[4]; 0.01 mg/kg i.v.,45 min
same,Mean Blood Pressure Decrease,[4]; 0.01 mg/kg i.v.,-44 ΔmmHg
same,Vertebral Blood Flow Increase,[4]; 0.01 mg/kg i.v.,144 Δ%
COc1ccc(Cc2nccc3cc(OC)c(OC)cc23)cc1OC [Papaverine],Carotid blood flow Duration,cerebral circulation; 1.0 mg/Kg i.v.,6 min
same,Carotid blood flow Increase,cerebral circulation; 1.0 mg/Kg i.v.,120%
same,Mean Blood Pressure Decrease,cerebral circulation; 1.0 mg/Kg i.v.,18%
same,Regional Cerebral blood flow Duration,cerebral circulation; 1.0 mg/Kg i.v.,7 min
same,Regional Cerebral blood flow Increase,cerebral circulation; 1.0 mg/Kg i.v.,8.2 μV
same,Vertebral Blood Flow Increase,cerebral circulation; 1.0 mg/Kg i.v.,120%
same,Vertebral blood flow Duration,cerebral circulation; 1.0 mg/Kg i.v.,6 min
"CCOC(=O)C1=C(C)N(CC(=O)O)C(C)=C(C(=O)OCC)C1c1cccc([N+](=O)[O-])c1 [sodium α-[3,5-bis(ethoxycarbonyl)-2,6-dimethyl-4-(3'-nitrophenyl)-1,4-dihydro-1-pyridinyl]acetate]",water-solubility (in words),Water-solubility,easily soluble in water
